SMILES strings stand for the structures. Counter-ions that a name gives are not always drawn. Like-named read-outs stand apart in the source and are kept apart here. Where only a bound is given, the exact number is not on record here.

In experiment [1] the target is PI3Kγ (p110γ) Recombinant Human Protein (Homo sapiens (Human), UniProt P48736). Nature of the experiment: PI3K-γ scintillation proximity assay. Type of experiment: biochemical. An excerpt:
Example B. PI3K-γ Scintillation Proximity Assay
Materials: [γ-^33P]ATP (10 mCi/mL) and Wheat Germ Agglutinin (WGA) YSi SPA Scintillation Beads was purchased from Perkin Elmer (Waltham, MA). Lipid kinase substrate, D-myo-Phosphatidylinositol 4,5-bisphosphate (PtdIns(4,5)P2)D (+)-sn-1,2-di-O-octanoylglyceryl, 3-O-phospho linked (PIP2), CAS 204858-53-7, was purchased from Echelon Biosciences (Salt Lake City, UT). PI3Kγ (p110γ) Recombinant Human Protein was purchased from Life technology (Grand Island, NY). ATP, MgCl2, DTT, EDTA, MOPS and CHAPS were purchased from Sigma Aldrich (St. Louis, MO).
(§1) The kinase reaction was conducted in polystyrene 384-well Greiner Bio-one white plate from Thermo Fisher Scientific in a final volume of 25 L. Inhibitors were first diluted serially in DMSO and added to the plate wells before the addition of other reaction components. The final concentration of DMSO in the assay was 2%. The PI3Kγ assay was carried out at room temperature in 20 mM MOPS, pH 6.7, 10 mM MgCl2, 5 mM DTT and CHAPS 0.03%. Reactions were initiated by the addition of ATP, the final reaction mixture consisted of 20 µM […], 0.5 μCi [γ-^33P]ATP, 13 nM PI3Kγ. Reactions were incubated for 120 min and terminated by the addition of 40 μL SPA beads suspended in quench buffer: 163 mM potassium phosphate pH 7.8, 20% glycerol, 25 mM EDTA. The final concentration of SPA beads is 1.0 mg/mL. After the plate sealing, plates were shaken overnight at room temperature and centrifuged at 1500 rpm for 10 min, the radioactivity of the product was determined by scintillation counting on Topcount (Perkin-Elmer). IC50 determination was performed by fitting the curve of percent of the solvent control activity versus the log of the inhibitor concentration using the GraphPad Prism 6.0 software.
(§2) The compounds of the Examples were tested in the assays described in Examples A, B and C and found to have the IC50s are shown in Tables A1, A2, A3 and A4.
(In general: In a scintillation proximity assay essentially only radioactivity close to the scintillant gives light.)

In experiment [2] the target is PI3Kδ (p1106/p85a) Recombinant Human Protein (Homo sapiens (Human), UniProt O00329). The experiment can be described thus: PI3Kδ scintillation proximity assay. The class given is biochemical.
Excerpt: Example C. PI3Kδ Scintillation Proximity Assay
Materials: [γ-^33P]ATP (10 mCi/mL) and Wheat Germ Agglutinin (WGA) YSi SPA Scintillation Beads was purchased from Perkin Elmer (Waltham, MA). Lipid kinase substrate, D-myo-Phosphatidylinositol 4,5-bisphosphate (PtdIns(4,5)P2)D (+)-sn-1,2-di-O-octanoylglyceryl, 3-O-phospho linked (PIP2), CAS 204858-53-7, was purchased from Echelon Biosciences (Salt Lake City, UT). PI3Kδ (p1106/p85a) Recombinant Human Protein was purchased from Eurofins (St Charles, MO). ATP, MgCl2, DTT, EDTA, MOPS and CHAPS were purchased from Sigma Aldrich (St. Louis, MO).
as §1, with “25 μL.” for “25 L.”, “The PI3Kδ” for “The PI3Kγ”, “[γ-^33P]ATP, 3.4” for “[γ-^33P]ATP, 13”, “nM PI3Kδ.” for “nM PI3Kγ.”, “Topcount (PerkinElmer).” for “Topcount (Perkin-Elmer).”
as §2

[3] abbreviates: Table A1, scintillation proximity assay, recombinant human p110γ.
[4] abbreviates: Table A1, scintillation proximity assay, recombinant human PI3Kδ.
[5] abbreviates: Table A3, scintillation proximity assay, recombinant human p110γ.
[6] abbreviates: Table A3, scintillation proximity assay, recombinant human PI3Kδ.
The mark [7] stands for this setting: Table A2, scintillation proximity assay, recombinant human p110γ.
The mark [8] stands for this setting: Table A2, scintillation proximity assay, recombinant human PI3Kδ.

PI3Kγ (p110γ) Recombinant Human Protein, sequence (P48736 whole entry): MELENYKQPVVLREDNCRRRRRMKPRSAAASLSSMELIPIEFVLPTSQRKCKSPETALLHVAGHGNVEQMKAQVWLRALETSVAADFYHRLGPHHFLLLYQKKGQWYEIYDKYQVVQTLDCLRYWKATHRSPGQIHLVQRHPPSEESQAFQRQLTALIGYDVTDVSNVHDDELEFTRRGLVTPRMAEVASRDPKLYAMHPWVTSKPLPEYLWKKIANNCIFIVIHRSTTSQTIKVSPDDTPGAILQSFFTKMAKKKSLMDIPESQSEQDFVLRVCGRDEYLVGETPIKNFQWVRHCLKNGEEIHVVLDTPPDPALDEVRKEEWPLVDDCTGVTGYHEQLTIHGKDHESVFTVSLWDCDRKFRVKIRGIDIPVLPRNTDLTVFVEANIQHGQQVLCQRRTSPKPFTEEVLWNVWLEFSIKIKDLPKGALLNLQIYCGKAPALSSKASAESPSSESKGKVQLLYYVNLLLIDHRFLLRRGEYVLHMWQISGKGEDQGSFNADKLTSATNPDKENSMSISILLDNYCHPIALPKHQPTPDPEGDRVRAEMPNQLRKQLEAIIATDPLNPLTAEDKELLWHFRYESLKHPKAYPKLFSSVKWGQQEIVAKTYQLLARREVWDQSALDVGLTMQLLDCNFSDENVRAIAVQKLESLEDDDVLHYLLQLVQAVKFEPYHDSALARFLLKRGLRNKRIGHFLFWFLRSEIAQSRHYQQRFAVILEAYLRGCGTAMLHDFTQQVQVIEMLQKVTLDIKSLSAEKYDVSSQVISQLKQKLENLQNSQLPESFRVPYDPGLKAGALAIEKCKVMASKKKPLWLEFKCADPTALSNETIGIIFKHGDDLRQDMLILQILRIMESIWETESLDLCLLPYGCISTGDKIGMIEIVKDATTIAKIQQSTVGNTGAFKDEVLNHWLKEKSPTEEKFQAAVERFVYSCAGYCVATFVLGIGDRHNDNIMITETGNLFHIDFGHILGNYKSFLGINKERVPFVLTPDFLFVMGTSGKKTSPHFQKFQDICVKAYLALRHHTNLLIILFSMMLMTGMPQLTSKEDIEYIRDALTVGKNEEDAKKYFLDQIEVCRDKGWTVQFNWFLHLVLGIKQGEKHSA
PI3Kδ (p1106/p85a) Recombinant Human Protein, sequence (O00329 whole entry): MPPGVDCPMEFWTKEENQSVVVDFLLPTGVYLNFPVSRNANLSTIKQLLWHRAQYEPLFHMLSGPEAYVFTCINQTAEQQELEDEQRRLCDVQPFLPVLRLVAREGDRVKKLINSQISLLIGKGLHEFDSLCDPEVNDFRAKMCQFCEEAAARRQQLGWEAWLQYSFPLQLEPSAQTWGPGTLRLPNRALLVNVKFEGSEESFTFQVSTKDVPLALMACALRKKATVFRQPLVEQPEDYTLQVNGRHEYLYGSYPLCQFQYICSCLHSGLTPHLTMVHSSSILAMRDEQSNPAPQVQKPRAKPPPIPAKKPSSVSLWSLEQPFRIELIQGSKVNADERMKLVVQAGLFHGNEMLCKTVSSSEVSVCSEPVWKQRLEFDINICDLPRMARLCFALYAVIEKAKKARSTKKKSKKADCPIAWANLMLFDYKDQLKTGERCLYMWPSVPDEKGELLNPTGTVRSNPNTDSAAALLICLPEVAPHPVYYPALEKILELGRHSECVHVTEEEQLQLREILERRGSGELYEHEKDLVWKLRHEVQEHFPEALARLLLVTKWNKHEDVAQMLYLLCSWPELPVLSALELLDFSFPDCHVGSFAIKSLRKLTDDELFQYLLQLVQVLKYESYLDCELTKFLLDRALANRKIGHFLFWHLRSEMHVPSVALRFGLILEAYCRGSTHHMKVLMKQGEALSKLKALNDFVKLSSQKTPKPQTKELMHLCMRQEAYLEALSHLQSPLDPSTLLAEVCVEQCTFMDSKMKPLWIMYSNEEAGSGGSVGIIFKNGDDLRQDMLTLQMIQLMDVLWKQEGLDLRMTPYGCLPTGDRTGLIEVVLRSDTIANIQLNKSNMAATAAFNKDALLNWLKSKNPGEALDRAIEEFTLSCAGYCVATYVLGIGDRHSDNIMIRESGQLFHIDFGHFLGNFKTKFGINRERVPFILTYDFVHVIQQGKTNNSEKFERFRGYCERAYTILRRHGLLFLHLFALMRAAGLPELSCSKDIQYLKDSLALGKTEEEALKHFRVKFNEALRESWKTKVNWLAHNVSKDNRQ
PI3Kδ (p1106/p85a) Recombinant Human Protein, sequence (P27986 whole entry partner): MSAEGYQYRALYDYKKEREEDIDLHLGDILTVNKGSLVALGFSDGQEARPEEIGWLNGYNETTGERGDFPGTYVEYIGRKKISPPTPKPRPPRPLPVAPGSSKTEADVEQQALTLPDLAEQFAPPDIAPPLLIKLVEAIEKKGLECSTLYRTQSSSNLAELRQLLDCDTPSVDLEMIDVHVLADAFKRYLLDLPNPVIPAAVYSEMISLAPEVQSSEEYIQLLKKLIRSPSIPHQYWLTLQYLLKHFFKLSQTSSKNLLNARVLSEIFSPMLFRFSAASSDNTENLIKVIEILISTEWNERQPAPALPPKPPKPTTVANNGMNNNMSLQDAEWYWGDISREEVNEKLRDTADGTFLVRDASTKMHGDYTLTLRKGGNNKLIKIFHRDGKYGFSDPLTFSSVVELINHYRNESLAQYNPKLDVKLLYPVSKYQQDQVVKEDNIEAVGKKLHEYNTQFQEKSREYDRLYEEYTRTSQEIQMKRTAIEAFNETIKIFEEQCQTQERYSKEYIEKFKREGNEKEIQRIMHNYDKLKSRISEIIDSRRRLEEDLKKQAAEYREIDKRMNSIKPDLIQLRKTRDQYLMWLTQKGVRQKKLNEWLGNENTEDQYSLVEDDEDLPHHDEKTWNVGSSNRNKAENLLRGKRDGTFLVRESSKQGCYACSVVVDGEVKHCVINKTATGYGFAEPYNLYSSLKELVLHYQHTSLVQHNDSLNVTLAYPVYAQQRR

The IC50 is the concentration needed to halve the response being measured. On to `Cc1ccc(C(O)(C(N)=O)C(F)F)cc1-c1cnc(N)c(C(=O)NC(C)(C)CO)n1` (stereo not drawn) [Example 35, 3-amino-6-(5-(1-amino-3,3-difluoro-2-hydroxy-1-oxopropan-2-yl)-2-methylphenyl)-N-(1-hydroxy-2-methylpropan-2-yl)pyrazine-2-carboxamide], for which the IC50 in experiment [1] (setting [3]) and in experiment [2] (setting [4]) was below 100 nM each time.
With `Cc1ccc(C(O)(C(N)=O)C(F)(F)F)cc1-c1cnc(N)c(C(=O)NCCC#N)n1` (stereo not drawn) [Example 14, 3-amino-6-(5-(3-amino-1,1,1-trifluoro-2-hydroxy-3-oxopropan-2-yl)-2-methylphenyl)-N-(2-cyanoethyl)pyrazine-2-carboxamide trifluoroacetate], the IC50 in experiment [1] (setting [3]) and in experiment [2] (setting [4]) was below 100 nM in each case.
`CCNC(=O)c1nc(-c2cc(C(O)(C(N)=O)C(F)(F)F)ccc2C)cnc1N` (stereo not drawn) [Example 7, 3-Amino-6-(5-(3-amino-1,1,1-trifluoro-2-hydroxy-3-oxopropan-2-yl)-2-methylphenyl)-N-ethylpyrazine-2-carboxamide trifluoroacetate]: the concentration for half-maximal inhibition (IC50) in experiment [1] (setting [3]) and in experiment [2] (setting [4]) was below 100 nM in each case.
On to `CNC(=O)C(O)(c1ccc(C)c(-c2cnc(N)c(-n3cncn3)n2)c1)C(F)(F)F` (stereo not drawn) [Example 94, 2-(3-(5-Amino-6-(1H-1,2,4-triazol-1-yl)pyrazin-2-yl)-4-methylphenyl)-3,3,3-trifluoro-2-hydroxy-N-methylpropanamide trifluoroacetate], for which the IC50 in experiment [1] (setting [5]) and in experiment [2] (setting [6]) was below 100 nM throughout.
In the case of `Cc1ccc(C(O)(C(N)=O)C(F)F)cc1-c1cnc(N)c(C(=O)NCC2(C#N)CC2)n1` (stereo not drawn) [Example 33, 3-amino-6-(5-(1-amino-3,3-difluoro-2-hydroxy-1-oxopropan-2-yl)-2-methylphenyl)-N-((1-cyanocyclopropyl)methyl)pyrazine-2-carboxamide], the half-maximal inhibitory concentration (IC50) in experiment [1] (setting [3]) and in experiment [2] (setting [4]) was below 100 nM in each case.
Regarding `Cc1ccc(C(O)(C(N)=O)C(F)(F)F)cc1-c1cnc(N)c(C#CC(C)(O)C(C)C)n1` (stereo not drawn) [Example 62, 2-(3-(5-amino-6-(3-hydroxy-3,4-dimethylpent-1-ynyl)pyrazin-2-yl)-4-methylphenyl)-3,3,3-trifluoro-2-hydroxypropanamide], the IC50 in experiment [1] (setting [7]) and in experiment [2] (setting [8]) was below 100 nM each time.
On to `Cc1ccc(C(O)(C(N)=O)C(F)(F)F)cc1-c1cnc(N)c(C#Cc2ccc(C#N)cc2)n1` (stereo not drawn) [Example 58, 2-(3-(5-amino-6-((4-cyanophenyl)ethynyl)pyrazin-2-yl)-4-methylphenyl)-3,3,3-trifluoro-2-hydroxypropanamide], for which the IC50 in experiment [1] (setting [7]) and in experiment [2] (setting [8]) was below 100 nM throughout.
As for `Cc1ccc(C(O)(C(N)=O)C(F)(F)F)cc1-c1cnc(N)c(N2CCN(c3ccccc3C#N)CC2)n1` (stereo not drawn) [Example 122, 2-(3-(5-amino-6-(4-(2-cyanophcnyl)piperazin-1-yl)pyrazin-2-yl)-4-methylphenyl)-3,3,3-trifluoro-2-hydroxypropanamide trifluoroacetate], the half-inhibitory concentration (IC50) in experiment [1] (Table A4, scintillation proximity assay, recombinant human p110γ) is below 100 nM; in experiment [2] (Table A4, scintillation proximity assay, recombinant human PI3Kδ), below 100 nM.
On to `CC(=O)NCC(O)(c1ccc(C)c(-c2cnc(N)c(-c3cnn(CC(F)(F)F)c3)n2)c1)C(F)(F)F` (stereo not drawn) [Example 104, N-(2-(3-(5-amino-6-(1-(2,2,2-trifluoroethyl)-1H-pyrazol-4-yl)pyrazin-2-yl)-4-methylphenyl)-3,3,3-trifluoro-2-hydroxypropyl)acetamide trifluoroacetate], for which the IC50 in experiment [1] (setting [5]) and in experiment [2] (setting [6]) was below 100 nM in each case.
For the molecule `Cc1ccc(C(O)(CNC=O)C(F)(F)F)cc1-c1cnc(N)c(-c2cnc(C3CC3)s2)n1` (stereo not drawn) [Example 102, N-(2-(3-(5-amino-6-(2-cyclopropylthiazol-5-yl)pyrazin-2-yl)-4-methylphenyl)-3,3,3-trifluoro-2-hydroxypropyl)formamide trifluoroacetate], the IC50 in experiment [1] (setting [5]) and in experiment [2] (setting [6]) was below 100 nM throughout.
As for `Cc1ccc(C(O)(C(N)=O)C(F)(F)F)cc1-c1cnc(N)c(N2CCN(c3ccccn3)CC2)n1` (stereo not drawn) [Example 117, 2-(3-(5-amino-6-(4-(pyridin-2-yl)piperazin-1-yl)pyrazin-2-yl)-4-methylphenyl)-3,3,3-trifluoro-2-hydroxypropanamide trifluoroacetate], the concentration for half-maximal inhibition (IC50) in experiment [1] and in experiment [2] was below 100 nM in each case.
For the molecule `Cc1ccc(C(O)(C(N)=O)C(F)(F)F)cc1-c1cnc(N)c(C(=O)N2CCc3cccnc32)n1` (stereo not drawn) [Example 28, 2-(3-(5-amino-6-(2,3-dihydro-1H-pyrrolo[2,3-b]pyridine-1-carbonyl)pyrazin-2-yl)-4-methylphenyl)-3,3,3-trifluoro-2-hydroxypropanamide], the IC50 in experiment [1] (setting [3]) was below 100 nM; in experiment [2] (setting [4]) it was 100 to 500 nM.
In the case of `Cc1ccc(C(O)(C(N)=O)C(F)(F)F)cc1-c1cnc(N)c(C(=O)N[C@H]2CCOC2)n1` (stereo partly drawn) [Example 11, 3-amino-6-(5-(3-amino-1,1,1-trifluoro-2-hydroxy-3-oxopropan-2-yl)-2-methylphenyl)-N-((S)-tetrahydrofuran-3-yl)pyrazine-2-carboxamide trifluoroacetate], the concentration for half-maximal inhibition (IC50) in experiment [1] (setting [3]) and in experiment [2] (setting [4]) was below 100 nM in each case.
Take `COc1cnc(C#Cc2nc(-c3cc(C(O)(C(N)=O)C(F)(F)F)ccc3C)cnc2N)cn1` (stereo not drawn) [Example 67, 2-(3-(5-amino-6-((5-methoxypyrazin-2-yl)ethynyl)pyrazin-2-yl)-4-methylphenyl)-3,3,3-trifluoro-2-hydroxypropanamide]: the IC50 in experiment [1] (setting [7]) and in experiment [2] (setting [8]) was below 100 nM each time.
For the molecule `Cc1ccc(C(O)(C(N)=O)C(F)(F)F)cc1-c1cnc(N)c(C(=O)Nc2ccnn2C)n1` (stereo not drawn) [Example 106, 3-amino-6-(5-(3-amino-1,1,1-trifluoro-2-hydroxy-3-oxopropan-2-yl)-2-methylphenyl)-N-(1-methyl-1H-pyrazol-5-yl)pyrazine-2-carboxamide trifluoroacetate], the 50% inhibitory concentration (IC50) in experiment [1] (setting [5]) and in experiment [2] (setting [6]) was below 100 nM each time.
Consider `Cc1ccc(C(O)(C(N)=O)C(F)F)cc1-c1cnc(N)c(C(=O)NC2CCC(F)(F)CC2)n1` (stereo not drawn) [Example 34, 3-amino-6-(5-(1-amino-3,3-difluoro-2-hydroxy-1-oxopropan-2-yl)-2-methylphenyl)-N-(4,4-difluorocyclohexyl)pyrazine-2-carboxamide], for which the IC50 in experiment [1] (setting [3]) and in experiment [2] (setting [4]) was below 100 nM throughout.
As for `Cc1ccc(C(O)(C(N)=O)C(F)(F)F)cc1-c1cnc(N)c(C(=O)NC(C)(C)CO)n1` (stereo not drawn) [Example 13, 3-Amino-6-(5-(3-amino-1,1,1-trifluoro-2-hydroxy-3-oxopropan-2-yl)-2-methylphenyl)-N-(1-hydroxy-2-methylpropan-2-yl)pyrazine-2-carboxamide], the half-inhibitory concentration (IC50) in experiment [1] (setting [3]) and in experiment [2] (setting [4]) was below 100 nM each time.
For the molecule `Cc1ccc(C(O)(C(N)=O)C(F)(F)F)cc1-c1cnc(N)c(C(F)(F)F)n1` (stereo not drawn) [Example 46, 2-(3-(5-Amino-6-(trifluoromethyl)pyrazin-2-yl)-4-methylphenyl)-3,3,3-trifluoro-2-hydroxypropanamide trifluoroacetate], the IC50 in experiment [1] (setting [7]) is below 100 nM; in experiment [2] (setting [8]), 100 to 500 nM.

Values taken from patent US20250388553A1 (Incyte Corporation, priority 2018, published 2025).
